Source: the CheMixHub ionic liquid set
± gives the uncertainty stated by the source.

Assay: xn = mol fraction of the nth substance listed
Conditions: 101 kPa; for electrical conductivity: frequency 3 MHz

Cn1cc[n+](CCCN)c1.F[B-](F)(F)F + CC#N
Conditions	electrical conductivity, 308.15 K [S/m]	electrical conductivity, 313.15 K [S/m]	electrical conductivity, 318.15 K [S/m]	electrical conductivity, 323.15 K [S/m]	viscosity, 308.15 K [mPa·s]	viscosity, 313.15 K [mPa·s]	viscosity, 318.15 K [mPa·s]	viscosity, 323.15 K [mPa·s]
x1 = 0.1001	2.89 ± 0.029	3.24 ± 0.032	3.622 ± 0.036	4.04 ± 0.04	6.804 ± 0.073	5.588 ± 0.069	4.761 ± 0.067	4.016 ± 0.065
x1 = 0.2005	2.343 ± 0.023	2.68 ± 0.027	3.05 ± 0.031	3.46 ± 0.035	13.48 ± 0.1	11.04 ± 0.09	9.062 ± 0.082	7.65 ± 0.076
x1 = 0.3	1.79 ± 0.018	2.06 ± 0.021	2.36 ± 0.024	2.68 ± 0.027	21.1 ± 0.14	17.16 ± 0.12	14.08 ± 0.1	11.81 ± 0.093
x1 = 0.399	1.27 ± 0.013	1.48 ± 0.015	1.7 ± 0.017	1.938 ± 0.019	29.46 ± 0.19	24.04 ± 0.16	19.9 ± 0.13	16.54 ± 0.12
x1 = 0.4996	0.874 ± 0.01	1.021 ± 0.01	1.17 ± 0.012	1.344 ± 0.013	38.98 ± 0.24	32.08 ± 0.2	26.59 ± 0.17	22.05 ± 0.15
x1 = 0.598	0.611 ± 0.01	0.721 ± 0.01	0.844 ± 0.01	0.982 ± 0.01	49.81 ± 0.3	40.8 ± 0.25	33.85 ± 0.21	28.29 ± 0.18
x1 = 0.6975	0.402 ± 0.01	0.487 ± 0.01	0.58 ± 0.01	0.692 ± 0.01	61.47 ± 0.36	50.47 ± 0.26	41.94 ± 0.25	35.74 ± 0.22
x1 = 0.7983	0.243 ± 0.01	0.301 ± 0.01	0.364 ± 0.01	0.437 ± 0.01	74.04 ± 0.55	61.67 ± 0.36	51.42 ± 0.27	43.45 ± 0.26
x1 = 0.8987	0.144 ± 0.01	0.182 ± 0.01	0.225 ± 0.01	0.276 ± 0.01	86.51 ± 0.78	71.62 ± 0.51	59.82 ± 0.34	50.53 ± 0.26
x1 = 1	0.055 ± 0.01	0.072 ± 0.01	0.094 ± 0.01	0.124 ± 0.01	100.2 ± 1.1	83.06 ± 0.71	69.26 ± 0.47	58.45 ± 0.32
